From patent publication US9056108B2, “Method of treating atrial fibrillation” (Gilead Sciences, Inc., priority 2009, dated 2015)

Legend:
[1] = system: female rabbit isolated heart; experiment: Monophasic action potential duration (MAPD90) in female rabbit isolated heart; details: ranolazine 0.1-100 μM
Procedure: Each rabbit was sedated using intramuscular injections of 6 mg/kg xylazine and 40 mg/kg ketamine and then anesthetized using a “cocktail” of ketamine (15 mg/kg)+xylazine (4 mg/kg) in 1.5 ml saline. The ketamine/xylazine cocktail was administered as an i.v. bolus via the marginal ear vein. After anesthesia was confirmed, the thorax was opened and the heart was quickly excised. The heart was placed in a modified Krebs-Henseleit (K-H) physiological saline solution at room temperature. The K-H solution contained (in mmol/L): NaCl 118, KCl 2.8, KH2PO4 1.2, CaCl2 2.5, MgSO4 0.5, pyruvate 2.0, glucose 5.5, Na2EDTA 0.57 and NaHCO3 25. […] CPP was measured (with a Biopac MP 150 pressure transducer, Goleta, Calif.) from a side port of the aortic catheter. […]
Monophasic action potential (MAP) and ECG electrodes from Harvard Apparatus Inc. (Holliston, Mass.) were used to record heart rate (in beats per minute, or bpm), left ventricular MAPs and a bipolar ECG MAP electrodes were pressure contact Ag—AgCl cells attached to a circular holder with springs to keep the electrodes in contact with the LV epicardial surface. […] To ensure that each response to drug had achieved a steady state before a drug concentration was changed, the MAP duration (from onset of depolarization to 100% repolarization) was measured using an on-screen caliper throughout each drug infusion period. […]

hNav1.5 = biological target: T1, hNav1.5 (Homo sapiens, UniProt Q14524); experiment: Tefluthrin-induced late sodium current in HEK293 cells expressing hNav1.5; format: cell-based; details: HEK293 cells expressing hNav1.5, tefluthrin 10 μM; read-out: Concentration causing a half-maximal inhibition of late Na+
T1 construct: expressed in transfected cells; host or cells: HEK293
T1 sequence (Q14524 whole entry): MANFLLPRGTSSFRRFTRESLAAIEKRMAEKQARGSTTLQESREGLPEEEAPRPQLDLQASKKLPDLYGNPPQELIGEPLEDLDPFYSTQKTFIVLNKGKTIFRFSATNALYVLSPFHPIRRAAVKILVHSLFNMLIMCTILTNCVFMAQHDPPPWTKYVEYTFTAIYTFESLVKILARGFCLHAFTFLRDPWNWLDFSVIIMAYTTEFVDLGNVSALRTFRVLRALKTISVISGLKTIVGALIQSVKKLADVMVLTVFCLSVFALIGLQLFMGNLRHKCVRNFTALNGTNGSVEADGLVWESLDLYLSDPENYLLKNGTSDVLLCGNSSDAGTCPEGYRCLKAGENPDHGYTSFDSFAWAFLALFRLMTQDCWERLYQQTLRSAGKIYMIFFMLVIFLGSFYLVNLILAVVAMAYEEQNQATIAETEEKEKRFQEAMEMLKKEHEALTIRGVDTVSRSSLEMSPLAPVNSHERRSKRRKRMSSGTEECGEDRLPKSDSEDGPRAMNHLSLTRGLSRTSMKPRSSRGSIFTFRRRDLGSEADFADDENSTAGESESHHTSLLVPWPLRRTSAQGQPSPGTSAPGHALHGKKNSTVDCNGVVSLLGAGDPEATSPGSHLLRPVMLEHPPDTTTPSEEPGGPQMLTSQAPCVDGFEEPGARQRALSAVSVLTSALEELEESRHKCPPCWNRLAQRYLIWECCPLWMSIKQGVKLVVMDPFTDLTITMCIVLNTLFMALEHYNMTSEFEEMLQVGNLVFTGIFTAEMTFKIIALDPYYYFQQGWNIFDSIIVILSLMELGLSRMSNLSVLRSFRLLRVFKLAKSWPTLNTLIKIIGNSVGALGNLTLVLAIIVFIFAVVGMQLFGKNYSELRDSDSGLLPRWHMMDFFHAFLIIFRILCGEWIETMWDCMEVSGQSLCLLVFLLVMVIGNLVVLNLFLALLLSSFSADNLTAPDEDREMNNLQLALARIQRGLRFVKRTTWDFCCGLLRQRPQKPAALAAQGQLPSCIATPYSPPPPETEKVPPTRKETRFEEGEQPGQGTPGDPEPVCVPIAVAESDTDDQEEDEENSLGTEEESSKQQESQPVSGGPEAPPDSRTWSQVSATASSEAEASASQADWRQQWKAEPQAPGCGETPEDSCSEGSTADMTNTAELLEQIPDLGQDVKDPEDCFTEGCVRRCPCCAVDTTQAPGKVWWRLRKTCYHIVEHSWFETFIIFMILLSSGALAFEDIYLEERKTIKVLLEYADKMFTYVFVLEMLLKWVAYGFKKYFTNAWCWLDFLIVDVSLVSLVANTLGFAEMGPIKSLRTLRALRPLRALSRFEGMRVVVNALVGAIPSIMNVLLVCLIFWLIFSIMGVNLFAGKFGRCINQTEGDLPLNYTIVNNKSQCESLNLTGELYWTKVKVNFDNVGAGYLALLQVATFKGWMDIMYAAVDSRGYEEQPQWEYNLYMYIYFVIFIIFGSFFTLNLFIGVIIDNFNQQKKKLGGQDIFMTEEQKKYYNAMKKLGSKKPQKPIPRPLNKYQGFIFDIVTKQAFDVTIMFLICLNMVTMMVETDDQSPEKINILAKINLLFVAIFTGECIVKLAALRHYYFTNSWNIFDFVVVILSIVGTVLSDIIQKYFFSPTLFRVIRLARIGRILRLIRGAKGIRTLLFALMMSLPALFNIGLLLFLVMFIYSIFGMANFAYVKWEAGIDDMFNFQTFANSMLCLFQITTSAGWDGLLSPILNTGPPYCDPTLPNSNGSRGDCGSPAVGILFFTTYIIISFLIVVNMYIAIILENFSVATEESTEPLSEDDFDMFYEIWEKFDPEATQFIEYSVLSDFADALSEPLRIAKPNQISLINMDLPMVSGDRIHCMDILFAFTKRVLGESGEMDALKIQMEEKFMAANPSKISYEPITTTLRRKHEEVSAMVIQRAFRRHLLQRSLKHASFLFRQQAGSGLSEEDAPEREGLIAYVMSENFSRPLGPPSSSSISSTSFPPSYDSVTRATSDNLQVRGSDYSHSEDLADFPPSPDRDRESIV
Procedure: The effect of dronedarone on late INa has not been reported. Therefore we determined the effect of dronedarone on late INa induced by incubation of HEK293 cells expressing the human heart sodium channel gene Nav1.5 with the late INa enhancer tefluthrin. […] Thus, the combination of dronedarone and ranolazine may be anticipated to reduce late INa. A reduction of late INa in the heart has been associated with a reduction of atrial arrhythmias in patients and in animal models of atrial fibrillation.

Which “Increase in MAPD90” value [1] does the source give for COc1ccccc1OCC(O)CN1CCN(CC(=O)Nc2c(C)cccc2C)CC1 (racemic) [Ranolazine, (±)-N-(2,6-dimethylphenyl)-4-[2-hydroxy-3-(2-methoxyphenoxy)-propyl]-1-piperazineacetamide] here?
The value was 22±6%.

And the MAPD90 ([1]; from 177±10)?
The MAPD90 was 215 ± 6 ms.

With CCCCc1oc2ccc(NS(C)(=O)=O)cc2c1C(=O)c1ccc(OCCCN(CCCC)CCCC)cc1 [Dronedarone, N-(2-Butyl-3-(p-(3-(dibutylamino)propoxy)benzoyl)-5-benzofuranyl)methanesulfonamide] as the compound, how does the IC50 (hNav1.5) read?
The IC50 was 4 µM.
